How the values were obtained:
[1] = tested on: library of 8380 IKZF3 degrons fused to EGFP in Jurkat cells; experiment: Pooled mutant ZF degron library screen (FACS EGFPlow vs EGFP+, NGS), 18 h; assay type: cell-based, human;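 for logFC: Log2 fold change of EGFPlow over EGFP+ representation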
Jurkat cells = experiment: TMTpro quantitative proteomics, 16 h; conditions: for Scaled value (to 150), replicate 01 / Scaled value (to 150), replicate 02 / Scaled value (to 150), replicate 03: Jurkat whole cell extracts, TMTpro SPS-MS3
Description: Quantitative proteomics screens were carried out in untransduced Jurkat cells, embryonic stem cells (ESCs), and the multiple myeloma cell line, MM.1S. We used Jurkat cells, as our work up to this point had employed this cell line, and we selected ESCs and MM.1S cells as they express known CRBN neosubstrates, including IKZF1, IKZF3, RAB28, RNF166, SALL4, ZFP91, and ZNF827.
Proteomics - cell lysis and protein digestion
The viability of Jurkat cells was tested after 16-h treatment with corresponding chemicals
viable cells in each condition. Next, ~10^7 cells per condition were collected by centrifugation (1000 rpm), washed twice with ice-cold PBS, and lysed in RIPA buffer [50 mM HEPES pH 7.4, 150 mM NaCl, 1% sodium deoxycholate, 1% NP-40, 0.1% SDS, 10 mM sodium pyrophosphate, 10 mM β-glycerophosphate, 2.5 mM MgCl2, 200 µM TCEP, phosphatase and protease inhibitor cocktail (in-house)], to produce whole cell extracts. Whole-cell extracts were sonicated, and protein concentrations were determined using the Bradford assay. Protein extracts (100 µg) were subjected to disulfide bond reduction with 5 mM TCEP (10 min) and alkylation with 25 mM chloroacetamide (20 min). Methanol–chloroform precipitation was performed prior to protease digestion. In brief, four parts of neat methanol were added to each sample and vortexed, one part chloroform was added to the sample and vortexed, and finally, three parts water was added to the sample and vortexed. The sample was centrifuged at 8000 rpm for 5 min at room temperature and subsequently washed twice with 100% methanol. Samples were resuspended in 100 mM EPPS pH8.5 containing
0.1% RapiGest and digested at 37 °C for 6 h with trypsin at a 100:1 protein-to-protease ratio.
Samples were then subjected to TMTpro
labeling. The preparation of MM1S cell extracts was conducted using the same procedure as for
Jurkat cells. ESC cells were plated onto 6 cm dishes 24 hours prior to the chemical treatment.
Following the chemical treatment, the cells on the dish were washed with DPBS four times, after
which RIPA buffer was added directly to the dish, and the lysate was collected using a scraper.
The whole cell lysates were then processed similarly to the Jurkat cell lysates.
Proteomics - Tandem mass tag labeling
Proline-based reporter isobaric Tandem Mass Tag (TMTpro) labeling of dried peptide samples
resuspended in 100 mM EPPS pH 8.5, was carried out as follows. TMTpro reagent was added to
samples (100 µg peptide), along with acetonitrile, to achieve a final acetonitrile concentration of
approximately 30% (v/v). Following incubation at room temperature for 1 h, the labeling efficiency
of a small aliquot was tested. The reaction was then quenched with hydroxylamine to a final
concentration of 0.5% (v/v) for 15 min. The TMTpro-labeled samples were pooled together at a
1:1 ratio. The sample was vacuum centrifuged to near dryness and subjected to C18 solid-phase
The dried TMTpro-labeled sample was resuspended in 100 μL of 10 mM NH4HCO3 pH 8.0 and
fractionated using basic pH reverse phase HPLC 40. Briefly, samples were offline fractionated over
a 90 min run, into 96 fractions by high pH reverse-phase HPLC (Agilent LC1260) through an aeris
peptide xb-c18 column (Phenomenex; 250 mm × 3.6 mm) for total proteome with mobile phase A
containing 5% acetonitrile and 10 mM NH4HCO3, and mobile phase B containing 90% acetonitrile

[2] = target: T1, Q147A mutant degron (ANQS) fused to EGFP (Homo sapiens, UniProt Q96SW2+Q9UKT9, Q147A); experiment: Ratiometric EGFP:mCherry flow cytometry degradation assay, 18 h; assay type: cell-based; conditions: Jurkat, read-out: DMax Q147A/%
T1 construct: pLVX-Sprout-IKZF3 130-189aa Q147A (ANQS); expressed in transfected cells
T1 sequence (Q9UKT9 130-189 Q147A): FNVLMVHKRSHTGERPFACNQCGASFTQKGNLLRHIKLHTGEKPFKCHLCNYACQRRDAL
T1 sequence (Q96SW2 whole entry, the tested form may be a part): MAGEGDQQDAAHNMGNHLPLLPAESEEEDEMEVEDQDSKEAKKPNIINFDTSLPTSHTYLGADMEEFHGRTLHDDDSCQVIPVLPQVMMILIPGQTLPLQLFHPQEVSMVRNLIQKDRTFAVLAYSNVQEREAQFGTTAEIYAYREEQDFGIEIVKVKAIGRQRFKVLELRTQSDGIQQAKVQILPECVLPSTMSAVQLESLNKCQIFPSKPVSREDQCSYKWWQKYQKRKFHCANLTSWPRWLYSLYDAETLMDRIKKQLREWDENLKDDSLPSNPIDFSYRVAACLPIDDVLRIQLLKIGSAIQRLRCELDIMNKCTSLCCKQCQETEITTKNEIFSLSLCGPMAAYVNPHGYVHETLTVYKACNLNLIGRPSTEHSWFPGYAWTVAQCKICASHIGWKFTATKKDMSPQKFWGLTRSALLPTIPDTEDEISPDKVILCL
T1 sequence (Q16531 whole entry partner, the tested form may be a part): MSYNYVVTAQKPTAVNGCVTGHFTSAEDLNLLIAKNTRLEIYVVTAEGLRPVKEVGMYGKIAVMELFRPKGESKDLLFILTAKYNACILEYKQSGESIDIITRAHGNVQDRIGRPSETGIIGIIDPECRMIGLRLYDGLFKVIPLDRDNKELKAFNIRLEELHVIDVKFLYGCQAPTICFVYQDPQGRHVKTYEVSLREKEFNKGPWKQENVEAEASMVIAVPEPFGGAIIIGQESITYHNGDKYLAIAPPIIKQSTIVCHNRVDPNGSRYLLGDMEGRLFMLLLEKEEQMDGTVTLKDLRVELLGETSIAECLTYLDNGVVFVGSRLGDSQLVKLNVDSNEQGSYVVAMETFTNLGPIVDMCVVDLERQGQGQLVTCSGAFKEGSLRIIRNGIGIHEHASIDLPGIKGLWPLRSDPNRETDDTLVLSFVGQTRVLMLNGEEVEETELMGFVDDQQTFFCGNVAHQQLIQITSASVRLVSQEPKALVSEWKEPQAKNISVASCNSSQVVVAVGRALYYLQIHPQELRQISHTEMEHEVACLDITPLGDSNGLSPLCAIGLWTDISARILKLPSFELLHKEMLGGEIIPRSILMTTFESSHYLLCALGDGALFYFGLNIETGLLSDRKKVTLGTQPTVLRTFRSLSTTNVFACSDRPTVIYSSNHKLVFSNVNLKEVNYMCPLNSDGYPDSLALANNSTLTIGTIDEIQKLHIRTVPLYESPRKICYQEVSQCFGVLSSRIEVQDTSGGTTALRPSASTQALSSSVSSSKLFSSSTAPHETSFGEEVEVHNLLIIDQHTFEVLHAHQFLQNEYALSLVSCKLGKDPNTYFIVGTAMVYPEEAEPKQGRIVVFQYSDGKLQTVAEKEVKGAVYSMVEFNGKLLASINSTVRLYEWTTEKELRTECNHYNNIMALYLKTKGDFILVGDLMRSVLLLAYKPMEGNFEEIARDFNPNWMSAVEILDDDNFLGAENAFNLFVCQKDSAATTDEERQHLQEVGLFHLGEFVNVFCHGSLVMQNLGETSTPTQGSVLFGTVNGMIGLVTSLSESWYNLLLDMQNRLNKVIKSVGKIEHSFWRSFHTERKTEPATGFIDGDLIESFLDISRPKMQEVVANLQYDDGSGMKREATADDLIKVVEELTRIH

[3] = protein AADAT isoform 2 (Q8N5Z0-2)

Which results are given for `O=C1CCC(N2C(=O)c3ccccc3C2=O)C(=O)N1` (centres unmarked) [Compound 1, thalidomide, reference compound]?
logFC ([1]; degron residues 146/147/149/150/152/153/154/155/167: FADVGAHFL): -2.25; logFC ([1]; degron residues 146/147/149/150/152/153/154/155/167: FADVGAIFL): -1.83; logFC ([1]; degron residues 146/147/149/150/152/153/154/155/167: FADVGAKFL): -1.45; logFC ([1]; degron residues 146/147/149/150/152/153/154/155/167: FADVGALFL): -2.47; logFC ([1]; degron residues 146/147/149/150/152/153/154/155/167: FADVGAMFL): -2.29; logFC ([1]; degron residues 146/147/149/150/152/153/154/155/167: FADVGANFL): -2.15; logFC ([1]; degron residues 146/147/149/150/152/153/154/155/167: FADVGAPFL): -0.92; logFC ([1]; degron residues 146/147/149/150/152/153/154/155/167: FADVGAQFL): -1.67; logFC ([1]; degron residues 146/147/149/150/152/153/154/155/167: FADVGARFL): -1.19; logFC ([1]; degron residues 146/147/149/150/152/153/154/155/167: FADVGASFL): -1.27; logFC ([1]; degron residues 146/147/149/150/152/153/154/155/167: FADVGATFL): -1.78; logFC ([1]; degron residues 146/147/149/150/152/153/154/155/167: FADVGAVFL): -2.08; logFC ([1]; degron residues 146/147/149/150/152/153/154/155/167: FADVGAWFL): -2.99; logFC ([1]; degron residues 146/147/149/150/152/153/154/155/167: FADVGAYFL): -2.07; Log2FC ([1]; degron residues 146/147/149/150/152/153/154/155/167: FQEIGAPFL): 3.7224; Log2FC ([1]; degron residues 146/147/149/150/152/153/154/155/167: FQEIGARFL): 3.7041; Log2FC ([1]; degron residues 146/147/149/150/152/153/154/155/167: FQEIGASFL): 3.7484; Log2FC ([1]; degron residues 146/147/149/150/152/153/154/155/167: FQEVGAQFL): 3.7719; Log2FC ([1]; degron residues 146/147/149/150/152/153/154/155/167: FQEVGARFL): 3.7061; Log2FC ([1]; degron residues 146/147/149/150/152/153/154/155/167: FQEVGATFL): 3.7446; Log2FC ([1]; degron residues 146/147/149/150/152/153/154/155/167: FQEVGAVFL): 3.7106; Log2FC ([1]; degron residues 146/147/149/150/152/153/154/155/167: FQNIGAIFL): 3.8114; Log2FC ([1]; degron residues 146/147/149/150/152/153/154/155/167: FQNIGAPFL): 3.7088; Log2FC ([1]; degron residues 146/147/149/150/152/153/154/155/167: FQNIGATFL, listed as Thal): 3.867; Log2FC ([1]; degron residues 146/147/149/150/152/153/154/155/167: FQNIGATFL, listed as Thalidomide): 3.8667; Log2FC ([1]; degron residues 146/147/149/150/152/153/154/155/167: FQPIGACFL): 3.7711; Log2FC ([1]; degron residues 146/147/149/150/152/153/154/155/167: FQPIGADFL, listed as Thal): 3.806; Log2FC ([1]; degron residues 146/147/149/150/152/153/154/155/167: FQPIGADFL, listed as Thalidomide): 3.8059; Log2FC ([1]; degron residues 146/147/149/150/152/153/154/155/167: FQPIGAIFL): 3.7924; Log2FC ([1]; degron residues 146/147/149/150/152/153/154/155/167: FQPIGASFL (QPIS), listed as Thal): 3.79; Log2FC ([1]; degron residues 146/147/149/150/152/153/154/155/167: FQPIGASFL (QPIS), listed as Thalidomide): 3.7900; Log2FC ([1]; degron residues 146/147/149/150/152/153/154/155/167: FQPVGAEFL): 3.7612; Log2FC ([1]; degron residues 146/147/149/150/152/153/154/155/167: FQPVGAKFL, listed as Thal): 3.962; Log2FC ([1]; degron residues 146/147/149/150/152/153/154/155/167: FQPVGAKFL, listed as Thalidomide): 3.9618; Log2FC ([1]; degron residues 146/147/149/150/152/153/154/155/167: FQPVGAPFL, listed as Thal): 3.872; Log2FC ([1]; degron residues 146/147/149/150/152/153/154/155/167: FQPVGAPFL, listed as Thalidomide): 3.8717; Log2FC ([1]; degron residues 146/147/149/150/152/153/154/155/167: FQPVGATFL): 3.7941; Log2FC ([1]; degron residues 146/147/149/150/152/153/154/155/167: FQPVGAVFL): 3.7460; Log2FC ([1]; degron residues 146/147/149/150/152/153/154/155/167: LQPIGFVCL): 3.7517; Scaled value (to 150), replicate 01 (Jurkat cells; protein A2M (P01023)): 8.46; Scaled value (to 150), replicate 02 (Jurkat cells; protein A2M (P01023)): 13.549; Scaled value (to 150), replicate 03 (Jurkat cells; protein A2M (P01023)): 7.506; Scaled value (to 150), replicate 01 (Jurkat cells; protein AAAS (Q9NRG9)): 10.0487; Scaled value (to 150), replicate 02 (Jurkat cells; protein AAAS (Q9NRG9)): 9.769; Scaled value (to 150), replicate 03 (Jurkat cells; protein AAAS (Q9NRG9)): 10.5105; Scaled value (to 150), replicate 01 (Jurkat cells; protein AACS (Q86V21)): 10.2228; Scaled value (to 150), replicate 02 (Jurkat cells; protein AACS (Q86V21)): 10.5542; Scaled value (to 150), replicate 03 (Jurkat cells; protein AACS (Q86V21)): 9.811; Scaled value (to 150), replicate 01 (Jurkat cells; [3]): 9.84; Scaled value (to 150), replicate 02 (Jurkat cells; [3]): 10.2362; Scaled value (to 150), replicate 03 (Jurkat cells; [3]): 11.2082; proteins degraded (quantitative proteomics) (Jurkat cells; Jurkat, 10 μM, 16 h, 9644 quantified proteins): did not induce major protein degradation; Dmax [2]: 82%
